ChEMBL document CHEMBL1201862, “PubChem BioAssay data set” (2004)
The source made the active and inactive calls.

How the values were obtained:
[1] = test system: HEK293; experiment: cells; format: functional, cell-based; conditions: Homo sapiens
[2] = test system: HEK293; experiment: cells; format: functional, cell-based; conditions: Homo sapiens; remark: listed apart in the source
[3] = test system: HEK293; experiment: cells; format: functional, cell-based; conditions: Homo sapiens; remark: listed apart in the source
[4] = biological target: Nucleotide-binding oligomerization domain-containing protein 2 (Homo sapiens, UniProt Q9HC29); experiment: inhibition of NOD2-driven NF-kB reporter – cell-based, luminescence, uHTS, HEK293 (AID 1566); format: functional
Chain of Nucleotide-binding oligomerization domain-containing protein 2 (Q9HC29 whole entry, the tested form may be a part): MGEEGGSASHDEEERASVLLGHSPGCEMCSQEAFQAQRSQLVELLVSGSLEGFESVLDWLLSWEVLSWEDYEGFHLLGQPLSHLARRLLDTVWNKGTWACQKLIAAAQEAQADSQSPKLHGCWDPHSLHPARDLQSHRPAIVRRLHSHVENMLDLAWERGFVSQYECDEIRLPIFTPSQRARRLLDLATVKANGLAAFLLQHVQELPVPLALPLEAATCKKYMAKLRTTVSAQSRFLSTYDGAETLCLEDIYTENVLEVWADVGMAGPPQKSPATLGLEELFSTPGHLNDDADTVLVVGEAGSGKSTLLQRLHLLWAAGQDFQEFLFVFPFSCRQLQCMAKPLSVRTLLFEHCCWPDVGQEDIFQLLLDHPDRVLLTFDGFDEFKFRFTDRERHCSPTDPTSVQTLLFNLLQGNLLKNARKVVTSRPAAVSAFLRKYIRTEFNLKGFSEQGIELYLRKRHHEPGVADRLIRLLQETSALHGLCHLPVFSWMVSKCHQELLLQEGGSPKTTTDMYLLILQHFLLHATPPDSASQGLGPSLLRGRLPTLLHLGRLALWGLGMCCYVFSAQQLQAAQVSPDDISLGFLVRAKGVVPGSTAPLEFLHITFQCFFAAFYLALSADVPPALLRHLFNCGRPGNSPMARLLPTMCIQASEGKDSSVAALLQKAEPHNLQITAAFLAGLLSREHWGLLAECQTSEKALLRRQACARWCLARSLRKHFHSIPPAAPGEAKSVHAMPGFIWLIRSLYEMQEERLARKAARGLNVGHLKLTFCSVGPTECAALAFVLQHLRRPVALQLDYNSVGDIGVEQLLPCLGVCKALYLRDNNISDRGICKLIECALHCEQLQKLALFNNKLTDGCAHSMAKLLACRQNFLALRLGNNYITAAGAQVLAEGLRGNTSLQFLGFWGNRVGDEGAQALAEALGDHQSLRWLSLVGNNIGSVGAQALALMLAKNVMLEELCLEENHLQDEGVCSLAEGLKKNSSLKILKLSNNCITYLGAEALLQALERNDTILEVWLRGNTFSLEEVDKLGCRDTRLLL

[5] = test system: HEK293; experiment: inhibition of NOD1-driven NF-kB reporter – cell-based, luminescence, uHTS, primary screen (AID 1578); format: functional; conditions: Homo sapiens
[6] = test system: HEK293; experiment: NOD2 signaling inhibitors in MDP-stimulated cells, cell-based, uHTS, luminescence (AID 2001); format: functional; conditions: Homo sapiens
[7] = biological target: Phospholipase A2 (Homo sapiens, UniProt P04054); format: functional;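 note: confirmatory dose-response counterscreen on phospholipase A2, testing hits that came from an ultra-high-throughput screen for ATG4B inhibitors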
Chain of Phospholipase A2 (P04054 whole entry): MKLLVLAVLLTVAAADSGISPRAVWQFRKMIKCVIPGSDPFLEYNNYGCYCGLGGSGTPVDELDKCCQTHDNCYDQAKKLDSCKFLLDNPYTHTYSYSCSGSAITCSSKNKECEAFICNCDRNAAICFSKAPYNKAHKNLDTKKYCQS

[8] = biological target: T1, Cysteine protease ATG4B (Homo sapiens, UniProt Q9Y4P1); format: functional;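 note: Fluorescence-based dose-response confirmation assay measuring inhibition of ATG4B activity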
T1 sequence (Q9Y4P1 whole entry): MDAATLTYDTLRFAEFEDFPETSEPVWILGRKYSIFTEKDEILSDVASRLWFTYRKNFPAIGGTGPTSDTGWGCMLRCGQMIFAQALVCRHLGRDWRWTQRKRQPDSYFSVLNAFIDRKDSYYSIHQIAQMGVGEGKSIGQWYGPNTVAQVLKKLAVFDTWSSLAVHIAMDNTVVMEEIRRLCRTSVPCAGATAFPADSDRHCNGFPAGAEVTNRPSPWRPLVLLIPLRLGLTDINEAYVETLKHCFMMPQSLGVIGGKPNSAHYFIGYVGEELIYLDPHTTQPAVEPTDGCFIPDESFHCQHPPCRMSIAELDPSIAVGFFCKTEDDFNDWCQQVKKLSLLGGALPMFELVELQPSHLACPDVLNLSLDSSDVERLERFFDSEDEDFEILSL

[9] = biological target: T2, Replicative DNA helicase DnaB (Mycobacterium tuberculosis, UniProt P9WMR3); experiment: DnaB intein splicing inhibitors, dose response, biochemical, cell-free fluorescence (AID 449749); format: functional
T2 sequence (P9WMR3 whole entry): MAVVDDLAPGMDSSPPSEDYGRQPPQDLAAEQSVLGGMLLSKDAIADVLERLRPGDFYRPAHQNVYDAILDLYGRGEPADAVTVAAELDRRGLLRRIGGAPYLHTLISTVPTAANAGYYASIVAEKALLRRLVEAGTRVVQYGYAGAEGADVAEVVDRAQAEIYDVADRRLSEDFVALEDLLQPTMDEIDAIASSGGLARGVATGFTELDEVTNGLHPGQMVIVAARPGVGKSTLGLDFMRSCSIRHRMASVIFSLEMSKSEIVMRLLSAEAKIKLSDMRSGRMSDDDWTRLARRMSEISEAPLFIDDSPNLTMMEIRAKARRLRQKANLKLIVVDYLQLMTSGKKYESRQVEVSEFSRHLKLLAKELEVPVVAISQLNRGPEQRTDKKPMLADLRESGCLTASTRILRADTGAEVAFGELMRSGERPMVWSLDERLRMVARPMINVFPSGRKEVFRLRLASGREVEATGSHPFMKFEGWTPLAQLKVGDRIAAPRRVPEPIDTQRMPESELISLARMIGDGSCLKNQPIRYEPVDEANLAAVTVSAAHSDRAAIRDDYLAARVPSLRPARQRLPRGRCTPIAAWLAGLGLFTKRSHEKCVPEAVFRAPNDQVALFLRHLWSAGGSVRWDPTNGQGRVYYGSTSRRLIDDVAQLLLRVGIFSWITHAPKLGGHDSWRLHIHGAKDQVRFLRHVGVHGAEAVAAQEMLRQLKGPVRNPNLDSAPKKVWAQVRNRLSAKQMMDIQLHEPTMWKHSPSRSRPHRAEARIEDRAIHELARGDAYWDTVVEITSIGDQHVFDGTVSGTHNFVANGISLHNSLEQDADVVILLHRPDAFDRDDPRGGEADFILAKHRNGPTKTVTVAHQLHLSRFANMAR

[10] = biological target: T3, Protein RecA (Mycobacterium tuberculosis, UniProt P9WHJ3); experiment: Fluorescence Cell-Free Homogeneous Dose Retest to Identify Inhibitors of RecA-Intein Splicing Activity. [Related pubchem assays (depositor defined):AID2097, AID2223, AID489010, AID492950]; format: functional
T3 sequence (P9WHJ3 whole entry): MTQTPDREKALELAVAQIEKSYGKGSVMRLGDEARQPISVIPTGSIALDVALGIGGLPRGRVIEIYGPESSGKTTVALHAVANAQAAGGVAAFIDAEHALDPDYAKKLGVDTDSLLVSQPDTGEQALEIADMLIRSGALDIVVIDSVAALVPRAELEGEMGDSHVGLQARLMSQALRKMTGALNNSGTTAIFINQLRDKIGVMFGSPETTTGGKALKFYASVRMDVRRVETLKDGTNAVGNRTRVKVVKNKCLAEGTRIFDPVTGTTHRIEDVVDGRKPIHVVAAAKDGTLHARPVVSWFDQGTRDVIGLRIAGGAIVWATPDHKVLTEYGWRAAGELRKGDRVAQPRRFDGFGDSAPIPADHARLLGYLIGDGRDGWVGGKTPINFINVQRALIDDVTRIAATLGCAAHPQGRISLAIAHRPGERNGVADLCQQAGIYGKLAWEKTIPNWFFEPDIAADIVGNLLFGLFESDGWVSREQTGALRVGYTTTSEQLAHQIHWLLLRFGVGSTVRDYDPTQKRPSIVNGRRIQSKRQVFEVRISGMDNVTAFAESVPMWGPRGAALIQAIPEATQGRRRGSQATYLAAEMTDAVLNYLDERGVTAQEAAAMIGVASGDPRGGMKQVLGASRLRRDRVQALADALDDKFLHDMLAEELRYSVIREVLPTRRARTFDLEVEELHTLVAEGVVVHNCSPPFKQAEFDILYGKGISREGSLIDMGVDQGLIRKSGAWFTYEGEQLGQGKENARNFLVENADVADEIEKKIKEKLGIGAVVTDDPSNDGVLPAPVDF

[11] = biological target: Eukaryotic translation initiation factor 4E (Mus musculus, UniProt P63073); experiment: blockers of eIF4G binding by eIF4E – biochemical, TR-FRET, dose response (AID 855); format: functional;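 note: potency for disrupting eIF4E binding to eIF4GI seen as loss of FRET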
Chain of Eukaryotic translation initiation factor 4E (P63073 whole entry): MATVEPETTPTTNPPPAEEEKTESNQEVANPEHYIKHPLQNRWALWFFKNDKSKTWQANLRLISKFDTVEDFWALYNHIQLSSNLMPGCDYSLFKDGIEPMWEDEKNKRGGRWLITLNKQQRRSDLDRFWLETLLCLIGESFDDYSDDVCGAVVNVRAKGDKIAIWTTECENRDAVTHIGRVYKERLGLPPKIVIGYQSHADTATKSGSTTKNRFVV

| SMILES | IC50 [1] | IC50 [2] | IC50 [3] | EC50 [4] | EC50 [5] | IC50 [6] | IC50 [7] | IC50 [8] | AC50 [9] | EC50 [10] | IC50 [11] |
| --- | --- | --- | --- | --- | --- | --- | --- | --- | --- | --- | --- |
| Cc1cc(C(=O)CSc2nnc(-c3ccco3)o2)c(C)n1-c1ccc2c(c1)OCCO2 | > 20 µM (inactive) | 13.3 µM (active) | > 20 µM (inactive) | > 20 µM (inactive) | 5.37 µM (active) | 14.5 µM (inactive) | – | – | – | – | – |
| COc1ccc2nc(N3CCCCC3)c(/C=C3\SC(=S)NC3=O)cc2c1 | 19.5 µM (active) | 4.9 µM (active) | > 20 µM (inactive) | 16.2 µM (active) | 2.17 µM (active) | 4.26 µM (inactive) | 2.47 µM (active) | 4.24 µM (active) | – | – | – |
| N#Cc1c(Cl)c(Cl)c2nnc(-c3ccc(Br)cc3)n2c1Cl | – | – | – | – | – | – | – | – | 10.2 µM (active) | 9.3 µM (active) | > 64 µM (inactive) |
